Measured values as given in US20260048052A1, “METHODS OF TREATING TENOSYNOVIAL GIANT CELL TUMORS” (Deciphera Pharmaceuticals, LLC, priority 2023, published 2026).
“And” between values parts separate entries of the source, which are not always exact repeats. Identical values can stand only once.

Legend:
patients with TGCT [1] = assay: Phase 1/2 open-label, multicenter study of vimseltinib in patients with TGCT: efficacy; assay type: in vivo, human; details: for Worst stiffness NRS response rate / Worst stiffness NRS response rate, n of responders: Week 25, response = at least a 2-point decrease; for PROMIS-PF response rate / PROMIS-PF response rate, No. of responders: Week 25, response = at least a 3-point increase; for Active ROM response rate / Active ROM response rate, No. of responders: Week 25, response = at least a 10% increase
Experimental: (§1) This is a Phase 1/2 open-label, multicenter study evaluating the safety and efficacy of vimseltinib in patients with TGCT. In Phase 1, 32 patients enrolled in three cohorts across multiple doses. In Phase 2, 66 patients enrolled in two cohorts at the recommended Phase 2 dose of 30 mg twice weekly: Cohort A (n=46) in TGCT patients with no prior anti-CSF1/CSF1R therapy (prior therapy with imatinib or nilotinib allowed); and Cohort B (n=20) in TGCT patients with prior anti-CSF1/CSF1R therapy (prior therapy with imatinib or nilotinib alone not eligible). With regards to antitumor activity and treatment duration, 93 patients were evaluable for efficacy by RECIST version 1.1 at the data cutoff date.

patients with TGCT [2] = details: human, in vivo
Experimental: The safety population includes patients who received at least 1 dose of study drug. Severity was assessed by the investigator according to the toxicity grade described in the National Cancer Institute CTCAE v4.03 (grade 1 [mild] to grade 5 [death]). Time denotes the earliest start date of the worst grade for each TEAE; if the highest grade TEAE occurred in the first 12 months of treatment, lower grade events that occurred after 12 months were not captured in this figure. Key: AST, aspartate aminotransferase; COVID-19, coronavirus disease 2019; CPK, creatine phosphokinase; CTCAE v4.03, Common Terminology Criteria for Adverse Events version 4.03; LDH, lactate dehydrogenase; TEAE, treatment-emergent adverse event.
as §1, with “eligible).” for “eligible). With regards to antitumor activity and treatment duration, 93 patients were evaluable for efficacy by RECIST version 1.1 at the data cutoff date.”

[3] = Cohort A, Partial Response per RECIST v1.1 at Week 25 by IRR (n = 17)
[4] = Cohort A, Stable Disease per RECIST v1.1 at Week 25 by IRR (n = 22)
[5] = Cohort B (20 patients), Week 25
[6] = Cohort B, Partial Response per RECIST v1.1 at Week 25 by IRR (n = 5)
[7] = Cohort B, Stable Disease per RECIST v1.1 at Week 25 by IRR (n = 9)
[8] = Phase 2 Cohort A (n = 45), second data cutoff
[9] = Phase 2 Cohort B (n = 13), second data cutoff
[10] = Phase 2 Cohort B (n = 19), second data cutoff

Cc1nc(-c2cnc(NC(C)C)n(C)c2=O)ccc1Oc1ccnc(-c2cnn(C)c2)c1 [Vimseltinib, 2-(isopropylamino)-3-methyl-5-(6-methyl-5-((2-(1-methyl-IH-pyrazol-4-yl)pyridin-4-yl)oxy)pyridin-2-yl)pyrimidin-4(3H)-one]
Worst stiffness NRS at Week 25, mean (patients with TGCT [1]; Cohort A (32 patients)): 3.1 | PROMIS-PF at Week 25, mean (patients with TGCT [1]; Cohort A (35 patients)): 43.9 | BPI worst pain response rate (patients with TGCT [1]; Cohort A (46 patients), Week 25): (50) % | BPI worst pain response rate, No. of responders (patients with TGCT [1]; Cohort A (46 patients), Week 25, 30% or greater decrease without 30% or greater increase in narcotic analgesic use): 23 No. | Average pain responder (patients with TGCT [1]; [3]): 12 (71) No. (%) | Worst pain responder (patients with TGCT [1]; [3]): 10 (59) No. (%) | Average pain responder (patients with TGCT [1]; [4]): 12 (55) No. (%) | Worst pain responder (patients with TGCT [1]; [4]): 12 (55) No. (%) | PROMIS-PF change from baseline, mean (patients with TGCT [1]; Cohort A, Week 25): 3.9 | Worst stiffness NRS change from baseline, mean (patients with TGCT [1]; Cohort A, Week 25): −1.8 | Worst stiffness NRS response rate (patients with TGCT [1]; Cohort A): (66) % | Worst stiffness NRS response rate, n of responders (patients with TGCT [1]; Cohort A): 21 n | PROMIS-PF response rate (patients with TGCT [1]; Cohort A): (49) % | PROMIS-PF response rate, No. of responders (patients with TGCT [1]; Cohort A): 17 No. | Active ROM response rate (patients with TGCT [1]; Cohort A): (42) % | Active ROM response rate, No. of responders (patients with TGCT [1]; Cohort A): 19 No. | patients with BPI response for both worst pain and average pain (patients with TGCT [1]; Cohort B (11/20), Week 25, ≥30% reduction in pain without ≥30% increase in narcotic analgesic use): 55% | Worst stiffness NRS at Week 25, mean (patients with TGCT [1]; Cohort B (14 patients)): 2.6 | PROMIS-PF at Week 25, mean (patients with TGCT [1]; Cohort B (15 patients)): 49.5 | BPI worst pain response rate (patients with TGCT [1]; [5]): (55) % | BPI worst pain response rate, No. of responders (patients with TGCT [1]; [5]): 11 No. | Average pain responder (patients with TGCT [1]; [6]): 2 (40) No. (%) | Worst pain responder (patients with TGCT [1]; [6]): 2 (40) No. (%) | Average pain responder (patients with TGCT [1]; [7]): 7 (78) No. (%) | Worst pain responder (patients with TGCT [1]; [7]): 7 (78) No. (%) | BPI responders among patients with objective responses by RECIST v1.1 (patients with TGCT [1]; Cohort B, Week 25): 40% | BPI responders among patients with stable disease (patients with TGCT [1]; Cohort B, Week 25): 78% | PROMIS-PF change from baseline, mean (patients with TGCT [1]; Cohort B, Week 25): 6.2 | Worst stiffness NRS change from baseline, mean (patients with TGCT [1]; Cohort B, Week 25): −2.2 | patients with clinically meaningful improvements in NRS stiffness (patients with TGCT [1]; Cohort B, Week 25): 58% | patients with clinically meaningful improvements in PROMIS-PF (patients with TGCT [1]; Cohort B, Week 25): 63% | Worst stiffness NRS response rate (patients with TGCT [1]; Cohort B): (71) % | Worst stiffness NRS response rate, n of responders (patients with TGCT [1]; Cohort B): 10 n | PROMIS-PF response rate (patients with TGCT [1]; Cohort B): (80) % | PROMIS-PF response rate, No. of responders (patients with TGCT [1]; Cohort B): 12 No. | Active ROM response rate (patients with TGCT [1]; Cohort B): (26) % | Active ROM response rate, No. of responders (patients with TGCT [1]; Cohort B): 5 No. | ORR per RECIST v1.1 by IRR (patients with TGCT [1]; Phase 1 (n = 32), multiple doses, first data cutoff): 72% | progression as assessed by IRR (patients with TGCT [1]; Phase 2, second data cutoff): no patients progressed | Active ROM at Week 25, mean (patients with TGCT [1]; Phase 2 Cohort A (33 patients), second data cutoff): 77.8% | ORR per RECIST v1.1 by IRR at Week 25 (patients with TGCT [1]; Phase 2 Cohort A (n = 45), 30 mg twice weekly, first data cutoff): 38% | ORR per RECIST v1.1 by IRR (patients with TGCT [1]; Phase 2 Cohort A (n = 45), 30 mg twice weekly, no prior anti-CSF1/CSF1R therapy, first data cutoff): 64% | ORR per RECIST v1.1 by IRR (patients with TGCT [1]; [8]): 64% | ORR per RECIST v1.1 by IRR at Week 25 (patients with TGCT [1]; [8]): 38% | ORR per TVS by IRR (patients with TGCT [1]; [8]): 62% | ORR per TVS by IRR at Week 25 (patients with TGCT [1]; [8]): 51% | Active ROM, change from baseline at Week 25, mean (SD) (patients with TGCT [1]; Phase 2 Cohort A, second data cutoff): 19.7 (43.5) percentage points and 19.7 percentage points | Active ROM of the affected joint at Week 25, mean (SD) (patients with TGCT [1]; [9]): 65.2 (37.5) % and 65.2% | Active ROM, change from baseline to Week 25, mean (SD) (patients with TGCT [1]; [9]): 14.1 (27.4) percentage points and 14.1 percentage points | ORR per RECIST v1.1 by IRR (patients with TGCT [1]; Phase 2 Cohort B (n = 16), 30 mg twice weekly, prior anti-CSF1/CSF1R therapy, first data cutoff): 44% | ORR per RECIST v1.1 by IRR (patients with TGCT [1]; [10]): 37% | ORR per RECIST v1.1 by IRR at Week 25 (patients with TGCT [1]; [10]): 26% | ORR per TVS by IRR (patients with TGCT [1]; [10]): 42% | ORR per TVS by IRR at Week 25 (patients with TGCT [1]; [10]): 26% | symptomatic benefit across secondary efficacy measures (ORR by TVS, active range of motion, physical function, stiffness, pain) (patients with TGCT [1]; Phase 2 Cohorts A and B, Week 25): clinically meaningful symptomatic benefit | Active ROM at Week 25: patients with decrease (patients with TGCT [1]; Phase 2 cohort A, FIG. 9A): 4 n | Active ROM at Week 25: patients with increase from baseline (patients with TGCT [1]; Phase 2 cohort A, FIG. 9A): 23 n | Active ROM at Week 25: patients with no change (patients with TGCT [1]; Phase 2 cohort A, FIG. 9A): 5 n | Active ROM at Week 25: patients with decrease (patients with TGCT [1]; Phase 2 cohort B, FIG. 9B): 1 n | Active ROM at Week 25: patients with increase from baseline (patients with TGCT [1]; Phase 2 cohort B, FIG. 9B): 9 n | Active ROM at Week 25: patients with no change (patients with TGCT [1]; Phase 2 cohort B, FIG. 9B): 3 n | Grade 3/4 TEAE eczema (patients with TGCT [2]): 10% | Grade 3/4 TEAE increased blood CPK (patients with TGCT [2]): 35% | Grade 3/4 TEAE increased blood creatine phosphokinase (CPK) (patients with TGCT [2]): 48% | grade of the majority of TEAEs (patients with TGCT [2]): grade 1 or 2 | onset of the majority of the most severe events (patients with TGCT [2]): ≤ 12 months | tolerability (patients with TGCT [2]): well-tolerated | tolerability, longer follow-up (patients with TGCT [2]): continued to be well tolerated with a manageable safety profile | treatment discontinuation due to TEAEs (patients with TGCT [2]): 9%
